# Assay results taken from patent publication US8933016B2, “Metallodrugs having improved pharmacological properties and methods of manufacture and use thereof” (priority 2012, dated 2015).
# Like-named read-outs stand apart in the source and are kept apart here. Ends that are not written are not given here. Peptide text beside a SMILES is read from it. * marks the point of attachment. X4 = COCCOCCOCCOCCOCCOCCOCCOCCOCCOCCOCCOCCOCCOCCOCCOCCOCCOCCOCCOCCOCCOCCOCCOCCOCCOCCOCCOCCOCCOCCOCCOCCOCCOCCOCCOCCOCCOCCOCCOCCOCCOCCOCCOCCOCCOCCOCCOCCNC(=O)CCN1C(=O)CC(*)C1=O; X3 = COCCOCCOCCOCCOCCOCCOCCOCCOCCOCCOCCOCCOCCOCCOCCOCCOCCOCCOCCOCCOCCOCCOCCOCCOCCOCCOCCOCCOCCOCCOCCOCCOCCOCCOCCOCCNC(=O)CCN1C(=O)CC(*)C1=O; X2 = COCCOCCOCCOCCOCCOCCOCCOCCOCCOCCOCCOCCOCCOCCOCCOCCOCCOCCOCCOCCOCCOCCOCCOCCNC(=O)CCN1C(=O)CC(*)C1=O; X1 = COCCOCCOCCOCCOCCOCCOCCOCCOCCOCCOCCOCCNC(=O)CCN1C(=O)CC(*)C1=O
# Tests used:
# [1] = test system: A. baumanii, BAA-747 (Ab)
# [2] = test system: K. pneumonia, 700603 (Kp); format: cell-based; conditions: Mueller Hinton Broth
# [3] = test system: E. coli O157:H7, BAA-1883 (Ec F)
# [4] = Cytotoxicity toward human Huh7 liver cells
# [5] = test system: S. pneumoniae, 49619 (Sp)
# [6] = test system: H. influenzae, 49247 (Hi)
# E. faecium, 700221 (Ef) = conditions: Mueller Hinton Broth
# MRSA, 43300 = conditions: Mueller Hinton Broth
# in vitro = conditions: human
# E. coli (ATCC 25922) = experiment: Protein oxidation, quantitation of protein carbonyls in E. coli; format: cell-based; conditions: 100 mM
compound,measurement,setting,value
CC[C@H](C)[C@H](NC(=O)[C@H](Cc1c[nH]cn1)NC(=O)CNC(=O)CN)C(=O)N[C@@H](CCCNC(=N)N)C(=O)N[C@@H](CCCNC(=N)N)C(=O)N[C@H](C(=O)N[C@H](C(=O)N[C@@H](CCCNC(=N)N)C(=O)N[C@@H](CCCCN)C(=O)N[C@H](C(=O)N[C@H](C(=O)N[C@@H](Cc1c[nH]cn1)C(=O)N[C@H](C(=O)N[C@H](C(=O)N[C@@H](CCCCN)C(=O)N[C@@H](CCCCN)C(=O)NCC(=O)NCC(=O)N[C@@H](CSC1CC(=O)N(CCC(=O)NCCOCCOCCOCCOCCOCCOCCOCCOCCOCCOCCOCCOC)C1=O)C(=O)O)[C@@H](C)CC)[C@@H](C)CC)[C@@H](C)CC)[C@@H](C)CC)[C@@H](C)CC)[C@@H](C)CC (stereo partly drawn) [PEP 318 PEG 12] (H-GGHIRRIIRKIIHIIKKGGC(X1)-OH; C-terminus assumed),MIC Ab,[1]; BAA-747,5.4 µM
same,MIC Kp,[2],21.4 µM
same,MIC Ec F,[3]; O157:H7,5.4 µM
same,IC50,[4],150 µM
same,MIC Ec,"E. coli, 25922 (Ec); 25922 (Ec)",10.7 µM
same,MIC Sp,[5]; 49619 (Sp),5.4 µM
same,MIC Hi,[6],2.7 µM
same,MIC Bc,"B. cepacia, 25416 (Bc)",2.7 µM
"GGHGRRWKIVVIRWRRGGC [PEP 321, GGHGRRWKIVVIRWRRGGC]",MIC Ab,[1]; Mueller Hinton Broth,28.4 µM
same,MIC Ef,"E. faecium, 700221 (Ef)",7.1 µM
same,MIC Kp,[2],14.2 µM
same,MIC Ec F,[3]; Mueller Hinton Broth,14.2 µM
same,MIC MRSA,"MRSA, 43300",14.2 µM
same,MIC Sp,[5]; Mueller Hinton Broth,1.8 µM
same,MIC Hi,[6],14.2 µM
"CC[C@H](C)[C@H](NC(=O)[C@H](Cc1c[nH]cn1)NC(=O)CNC(=O)CN)C(=O)N[C@@H](CC(C)C)C(=O)N1CCC[C@H]1C(=O)N[C@@H](Cc1c[nH]c2ccccc12)C(=O)N[C@@H](CCCCN)C(=O)N[C@@H](Cc1c[nH]c2ccccc12)C(=O)N1CCC[C@H]1C(=O)N[C@@H](Cc1c[nH]c2ccccc12)C(=O)N[C@@H](Cc1c[nH]c2ccccc12)C(=O)N1CCC[C@H]1C(=O)N[C@@H](Cc1c[nH]c2ccccc12)C(=O)N[C@@H](CCCNC(=N)N)C(=O)N[C@@H](CCCNC(=N)N)C(=O)NCC(=O)NCC(=O)N[C@@H](CS)C(=O)O [PEP 316, GGHILPWKWPWWPWRRGGC]",MIC Hi,[6],13.5 µM
GGHIRRIIRKIIHIIKKGGC [PEP 318],MIC Ab,[1]; BAA-747,7 µM
same,MIC Pa,"P. aeuginosa, 27583 (Pa)",28.2 µM
same,MIC Kp,[2],28.2 µM
same,IC50,in vitro,41 µM
same,MIC Ec,"E. coli, 25922 (Ec); 25922 (Ec)",7 µM
same,MIC Sa,"S. aureus, 29213 (Sa); 29213 (Sa)",14.1 µM
same,MIC Sp,[5]; 49619 (Sp),3.5 µM
GGHGEYVLRNWRIVKVATTKAC [PEP 193],MIC MRSA,"MRSA, 43300",13 µM
"OO [H2O2, Hydrogen Peroxide]",Protein Carbonyls (nmol/mg protein),E. coli (ATCC 25922); 2 hours (PEP 188 table),0.87 nmol/mg protein
same,Protein Carbonyls (nmol/mg protein),"E. coli (ATCC 25922); 2 hours, average of 2 separate experiments (PEP 189 table)",0.44 nmol/mg protein
GGHGIRRIIRKIIHIIKKGGC [PEP 311],MIC Ab,[1]; Mueller Hinton Broth,2 µM
same,MIC Ef,"E. faecium, 700221 (Ef)",4 µM
same,MIC Pa,"P. aeuginosa, 27583 (Pa); Mueller Hinton Broth",15.8 µM
same,MIC Kp,[2],7.9 µM
same,MIC Ec F,[3]; Mueller Hinton Broth,4 µM
same,MIC Ec,"E. coli, 25922 (Ec); Mueller Hinton Broth",7.9 µM
same,MIC Sa,"S. aureus, 29213 (Sa); Mueller Hinton Broth",7.9 µM
same,MIC Sp,[5]; Mueller Hinton Broth,15.8 µM
same,MIC Hi,[6],31.7 µM
CC[C@H](C)[C@H](NC(=O)[C@H](CCCCN)NC(=O)[C@H](Cc1c[nH]c2ccccc12)NC(=O)[C@H](CCCNC(=N)N)NC(=O)[C@H](CCCNC(=N)N)NC(=O)[C@H](Cc1c[nH]cn1)NC(=O)CNC(=O)CN)C(=O)N[C@H](C(=O)N[C@H](C(=O)N[C@H](C(=O)N[C@@H](CCCNC(=N)N)C(=O)N[C@@H](Cc1c[nH]c2ccccc12)C(=O)N[C@@H](CCCNC(=N)N)C(=O)N[C@@H](CCCNC(=N)N)C(=O)NCC(=O)NCC(=O)N[C@@H](CSC1CC(=O)N(CCC(=O)NCCOCCOCCOCCOCCOCCOCCOCCOCCOCCOCCOCCOCCOCCOCCOCCOCCOCCOCCOCCOCCOCCOCCOCCOCCOCCOCCOCCOCCOCCOCCOCCOCCOCCOCCOCCOC)C1=O)C(=O)O)[C@@H](C)CC)C(C)C)C(C)C (stereo partly drawn) [PEP 314 PEG 36] (H-GGHRRWKIVVIRWRRGGC(X3)-OH; C-terminus assumed),IC50,[4],> 200 µM
same,MIC Sp,[5]; 49619 (Sp),8.1 µM
"GGHGWRWYCR [PEP 204, GGHGWRWYCR]",MIC Ab,[1]; Mueller Hinton Broth,25.1 µM
same,MIC Ef,"E. faecium, 700221 (Ef)",25.1 µM
same,MIC Pa,"P. aeuginosa, 27583 (Pa); Mueller Hinton Broth",25 µM
same,MIC Kp,[2],4.7 µM
same,MIC Ec F,[3]; Mueller Hinton Broth,50 µM
same,MIC Ec,"E. coli, 25922 (Ec); Mueller Hinton Broth",3.1 µM
same,MIC MRSA,"MRSA, 43300",6.3 µM
DOTA-Ampicillin [DOTAMP],MIC Ec F,[3]; Mueller Hinton Broth,42.5 µM
same,MIC Ec,"E. coli, 25922 (Ec); Mueller Hinton Broth",42.5 µM
same,MIC MRSA,"MRSA, 43300",42.5 µM
"GGHWRWYCRGGK [PEP 322, GGHWRWYCRGGK]",MIC Kp,[2],7.6 µM
same,MIC Hi,[6],2.7 µM
"GGHTRQARRNRR [PEP 205, GGHTRQARRNRR]",MIC Pa,"P. aeuginosa, 27583 (Pa)",43.7 µM
CC[C@H](C)[C@H](NC(=O)[C@H](CCCCN)NC(=O)[C@H](Cc1c[nH]c2ccccc12)NC(=O)[C@H](CCCNC(=N)N)NC(=O)[C@H](CCCNC(=N)N)NC(=O)[C@H](Cc1c[nH]cn1)NC(=O)CNC(=O)CN)C(=O)N[C@H](C(=O)N[C@H](C(=O)N[C@H](C(=O)N[C@@H](CCCNC(=N)N)C(=O)N[C@@H](Cc1c[nH]c2ccccc12)C(=O)N[C@@H](CCCNC(=N)N)C(=O)N[C@@H](CCCNC(=N)N)C(=O)NCC(=O)NCC(=O)N[C@@H](CSC1CC(=O)N(CCC(=O)NCCOCCOCCOCCOCCOCCOCCOCCOCCOCCOCCOCCOCCOCCOCCOCCOCCOCCOCCOCCOCCOCCOCCOCCOCCOCCOCCOCCOCCOCCOCCOCCOCCOCCOCCOCCOCCOCCOCCOCCOCCOCCOCCOCCOCCOCCOCCOCCOC)C1=O)C(=O)O)[C@@H](C)CC)C(C)C)C(C)C (stereo partly drawn) [PEP 314 PEG 48] (H-GGHRRWKIVVIRWRRGGC(X4)-OH; C-terminus assumed),IC50,[4],> 200 µM
same,MIC Sp,[5]; 49619 (Sp),7.1 µM
CC[C@H](C)[C@H](NC(=O)[C@H](Cc1c[nH]cn1)NC(=O)CNC(=O)CN)C(=O)N[C@@H](CCCNC(=N)N)C(=O)N[C@@H](CCCNC(=N)N)C(=O)N[C@H](C(=O)N[C@H](C(=O)N[C@@H](CCCNC(=N)N)C(=O)N[C@@H](CCCCN)C(=O)N[C@H](C(=O)N[C@H](C(=O)N[C@@H](Cc1c[nH]cn1)C(=O)N[C@H](C(=O)N[C@H](C(=O)N[C@@H](CCCCN)C(=O)N[C@@H](CCCCN)C(=O)NCC(=O)NCC(=O)N[C@@H](CSC1CC(=O)N(CCC(=O)NCCOCCOCCOCCOCCOCCOCCOCCOCCOCCOCCOCCOCCOCCOCCOCCOCCOCCOCCOCCOCCOCCOCCOCCOCCOCCOCCOCCOCCOCCOCCOCCOCCOCCOCCOCCOC)C1=O)C(=O)O)[C@@H](C)CC)[C@@H](C)CC)[C@@H](C)CC)[C@@H](C)CC)[C@@H](C)CC)[C@@H](C)CC (stereo partly drawn) [PEP 318 PEG 36] (H-GGHIRRIIRKIIHIIKKGGC(X3)-OH; C-terminus assumed),MIC Ab,[1]; BAA-747,7.9 µM
same,MIC Ec F,[3]; O157:H7,15.8 µM
same,IC50,[4],> 200 µM
same,MIC Ec,"E. coli, 25922 (Ec); 25922 (Ec)",15.8 µM
"GGHRRWKIVVIRWRRGGC [PEP 314, GGHRRWKIVVIRWRRGGC]",MIC Ab,[1]; BAA-747,7.3 µM
same,MIC Pa,"P. aeuginosa, 27583 (Pa)",14.6 µM
same,MIC Kp,[2],14.6 µM
same,IC50,in vitro,17 µM
same,MIC Ec,"E. coli, 25922 (Ec); 25922 (Ec)",14.6 µM
same,MIC Sa,"S. aureus, 29213 (Sa); 29213 (Sa)",29.2 µM
same,MIC Sp,[5]; 49619 (Sp),0.9 µM
same,MIC Hi,[6],3.7 µM
CC[C@H](C)[C@H](NC(=O)[C@H](CCCCN)NC(=O)[C@H](Cc1c[nH]c2ccccc12)NC(=O)[C@H](CCCNC(=N)N)NC(=O)[C@H](CCCNC(=N)N)NC(=O)[C@H](Cc1c[nH]cn1)NC(=O)CNC(=O)CN)C(=O)N[C@H](C(=O)N[C@H](C(=O)N[C@H](C(=O)N[C@@H](CCCNC(=N)N)C(=O)N[C@@H](Cc1c[nH]c2ccccc12)C(=O)N[C@@H](CCCNC(=N)N)C(=O)N[C@@H](CCCNC(=N)N)C(=O)NCC(=O)NCC(=O)N[C@@H](CSC1CC(=O)N(CCC(=O)NCCOCCOCCOCCOCCOCCOCCOCCOCCOCCOCCOCCOCCOCCOCCOCCOCCOCCOCCOCCOCCOCCOCCOCCOC)C1=O)C(=O)O)[C@@H](C)CC)C(C)C)C(C)C (stereo partly drawn) [PEP 314 PEG 24] (H-GGHRRWKIVVIRWRRGGC(X2)-OH; C-terminus assumed),MIC Ec F,[3]; O157:H7,9.3 µM
same,IC50,[4],> 200 µM
same,MIC Sp,[5]; 49619 (Sp),4.7 µM
"GGHGWRWYCRGGK [PEP 323, GGHGWRWYCRGGK]",MIC Ab,[1]; BAA-747,20.9 µM
same,MIC Pa,"P. aeuginosa, 27583 (Pa)",20.9 µM
same,MIC Kp,[2],20.9 µM
same,MIC Ec,"E. coli, 25922 (Ec); 25922 (Ec)",20.9 µM
same,MIC Hi,[6],1.5 µM
